# Measured values: patent US10899754B2, “Modulators of indoleamine 2,3-dioxygenase” (GLAXOSMITHKLINE INTELLECTUAL PROPERTY DEVELOPMENT LIMITED, priority 2016, dated 2021)
# Tests used:
# [1] = molecular target: indoleamine 2, 3-dioxygenase (IDO1) (Homo sapiens, UniProt P14902); assay: IDO1 PBMC RapidFire MS assay (kynurenine detection by mass spectrometry); type: cell-based; design: to induce the expression of indoleamine 2, 3-dioxygenase (IDO1); host or cells: human PBMC stimulated with IFN-gamma and LPS; settings: human PBMC stimulated with IFN-γ and LPS, 2 days, pIC50, read-out: PBMC PXC50 (converted)
# Chain of indoleamine 2, 3-dioxygenase (IDO1) (P14902 whole entry): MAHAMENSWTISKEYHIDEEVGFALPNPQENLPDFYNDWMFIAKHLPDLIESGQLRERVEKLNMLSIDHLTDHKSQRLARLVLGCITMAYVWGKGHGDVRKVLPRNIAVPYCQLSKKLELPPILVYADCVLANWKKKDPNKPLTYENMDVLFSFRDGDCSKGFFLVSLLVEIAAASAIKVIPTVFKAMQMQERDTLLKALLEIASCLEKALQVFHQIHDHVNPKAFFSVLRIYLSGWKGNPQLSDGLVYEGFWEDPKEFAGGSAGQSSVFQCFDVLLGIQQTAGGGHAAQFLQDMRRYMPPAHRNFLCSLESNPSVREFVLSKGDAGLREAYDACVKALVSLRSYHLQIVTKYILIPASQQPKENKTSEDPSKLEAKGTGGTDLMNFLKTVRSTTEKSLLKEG
# Procedure: IDO1 PBMC RapidFire MS Assay
# (§1) Compounds of the present invention were tested via high-throughput cellular assays utilizing detection of kynurenine via mass spectrometry and cytotoxicity as end-points. For the mass spectrometry and cytotoxicity assays, human peripheral blood mononuclear cells (PBMC) (PB003F; AllCells®, Alameda, Calif.) were stimulated with human interferon-γ (IFN-γ) (Sigma-Aldrich Corporation, St. Louis, Mo.) and lipopolysaccharide from Salmonella minnesota (LPS) (Invivogen, San Diego, Calif.) to induce the expression of indoleamine 2, 3-dioxygenase (IDO1). Compounds with IDO1 inhibitory properties decreased the amount of kynurenine produced by the cells via the tryptophan catabolic pathway. Cellular toxicity due to the effect of compound treatment was measured using CellTiter-Glo® reagent (CTG) (Promega Corporation, Madison, Wis.), which is based on luminescent detection of ATP, an indicator of metabolically active cells.
# (§2) In preparation for the assays, test compounds were serially diluted 3-fold in DMSO from a typical top concentration of 1 mM or 5 mM and plated at 0.5 μL in 384-well, polystyrene, clear bottom, tissue culture treated plates with lids (Greiner Bio-One, Kremsmünster, Austria) to generate 11-point dose response curves. Low control wells (0% kynurenine or 100% cytotoxicity) contained either 0.5 μL of DMSO in the presence of unstimulated (−IFN-γ/−LPS) PBMCs for the mass spectrometry assay or 0.5 μL of DMSO in the absence of cells for the cytotoxicity assay, and high control wells (100% kynurenine or 0% cytotoxicity) contained 0.5 μL of DMSO in the presence of stimulated (+IFN-γ/+LPS) PBMCs for both the mass spectrometry and cytotoxicity assays.
# (§3) Frozen stocks of PBMCs were washed and recovered in RPMI 1640 medium (Thermo Fisher Scientific, Inc., Waltham, Mass.) supplemented with 10% v/v heat-inactivated fetal bovine serum (FBS) (Thermo Fisher Scientific, Inc., Waltham, Mass.), and 1× penicillin-streptomycin antibiotic solution (Thermo Fisher Scientific, Inc., Waltham, Mass.). The cells were diluted to 1,000,000 cells/mL in the supplemented RPMI 1640 medium. 50 μL of either the cell suspension, for the mass spectrometry assay, or medium alone, for the cytotoxicity assay, were added to the low control wells, on the previously prepared 384-well compound plates, resulting in 50,000 cells/well or 0 cells/well respectively. IFN-γ and LPS were added to the remaining cell suspension at final concentrations of 100 ng/ml and 50 ng/ml respectively, and 50 μL of the stimulated cells were added to all remaining wells on the 384-well compound plates. The plates, with lids, were then placed in a 37° C., 5% CO2 humidified incubator for 2 days.
# (§4) Following incubation, the 384-well plates were removed from the incubator and allowed to equilibrate to room temperature for 30 minutes. For the cytotoxicity assay, CellTiter-Glo® was prepared according to the manufacturer's instructions, and 40 μL were added to each plate well. After a twenty minute incubation at room temperature, luminescence was read on an EnVision® Multilabel Reader (PerkinElmer Inc., Waltham, Mass.). For the mass spectrometry assay, 10 μL of supernatant from each well of the compound-treated plates were added to 40 μL of acetonitrile, containing 10 μM of an internal standard for normalization, in 384-well, polypropylene, V-bottom plates (Greiner Bio-One, Kremsmünster, Austria) to extract the organic analytes. Following centrifugation at 2000 rpm for 10 minutes, 10 μL from each well of the acetonitrile extraction plates were added to 90 μL of sterile, distilled H2O in 384-well, polypropylene, V-bottom plates for analysis of kynurenine and the internal standard on the RapidFire 300 (Agilent Technologies, Santa Clara, Calif.) and 4000 QTRAP MS (SCIEX, Framingham, Mass.). MS data were integrated using Agilent Technologies' RapidFire Integrator software, and data were normalized for analysis as a ratio of kynurenine to the internal standard. […]
# [2] = system: human peripheral blood mononuclear cells (PBMC); assay: PBMC cytotoxicity assay (CellTiter-Glo); type: cell-based; settings: 2 days, pCC50
# Procedure: as §1, §2, §3, §4
smiles,measurement,setting,value
"CC(C)CN(c1ccc(C(C)Nc2c(O)c(=O)c2=O)cc1Nc1nc(C(F)(F)F)ns1)C1CCOCC1 (stereo not shown) [example 256, 3-hydroxy-4-[(1-{4-[(2-methylpropyl)(oxan-4-yl)amino]-3-{[3-(trifluoromethyl)-1,2,4-thiadiazol-5-yl]amino}phenyl}ethyl)amino]cyclobut-3-ene-1,2-dione]",IC50,[1],2510 nM
same,PBMC TOX PXC50,[2],<5
"CC(C)CN(c1ccc([C@H](C)CC(=O)NS(=O)(=O)N(C)C)cc1Nc1nc(C(F)(F)F)ns1)C1CCOCC1 [Example 108, (R)—N—(N,N-Dimethylsulfamoyl)-3-(4-(isobutyl(tetrahydro-2H-pyran-4-yl)amino)-3-((3-(trifluoromethyl)-1,2,4-thiadiazol-5-yl)amino)phenyl)butanamide]",IC50,[1],2.51 nM
same,PBMC TOX PXC50,[2],<5
"CC(C)CN(c1ccc([C@H](C)CC(=O)O)cc1Nc1n[nH]c(C(N)=O)n1)C1CCOCC1 [example 227, (3R)-3-{3-[(5-carbamoyl-1H-1,2,4-triazol-3-yl)amino]-4-[(2-methylpropyl)(oxan-4-yl)amino]phenyl}butanoic acid]",IC50,[1],501 nM
same,PBMC TOX PXC50,[2],<5
"CC(C)CN(c1ccc([C@H](C)CC(=O)O)cc1Nc1ccc(Cl)c(Cl)n1)C1CCOCC1 [Example 33, (R)-3-(3-((5,6-Dichloropyridin-2-yl)amino)-4-(isobutyl(tetrahydro-2H-pyran-4-yl)amino)phenyl)butanoic Acid]",IC50,[1],6.31 nM
same,PBMC TOX PXC50,[2],<5
"CC(C)CN(c1ccc(C(C)CC(=O)O)cc1Nc1nncs1)C1CCCCC1 (stereo not shown) [example 235, 3-{4-[cyclohexyl(2-methylpropyl)amino]-3-[(1,3,4-thiadiazol-2-yl)amino]phenyl}butanoic acid]",IC50,[1],20 nM
same,PBMC TOX PXC50,[2],<5
"CC(C)CN(c1ccc([C@H](C)CC(=O)O)cc1Nc1nc(Cl)ns1)C1CCOCC1 [Example 25, (R)-3-(3-((3-chloro-1,2,4-thiadiazol-5-yl)amino)-4-(isobutyl(tetrahydro-2H-pyran-4-yl)amino)phenyl)butanoic Acid]",IC50,[1],3.16 nM
same,PBMC TOX PXC50,[2],<5
"CC(C)CN(c1ccc(-c2ccccc2C(=O)O)cc1Nc1nc(C(F)(F)F)ns1)C1CC2(C1)CN(C(=O)OC(C)(C)C)C2 [Example 97, 4′-((2-(tert-butoxycarbonyl)-2-azaspiro[3.3]heptan-6-yl) (isobutyl)amino)-3′-((3-(trifluoromethyl)-1,2,4-thiadiazol-5-yl)amino)-[1,1′-biphenyl]-2-carboxylic Acid]",IC50,[1],6.31 nM
same,PBMC TOX PXC50,[2],<5
"CC(C)CN(c1ccc([C@H](C)CC(=O)O)cc1Nc1cnc(C(N)=O)cn1)C1CCOCC1 [example 264, (3R)-3-{3-[(5-carbamoylpyrazin-2-yl)amino]-4-[(2-methylpropyl)(oxan-4-yl)amino]phenyl}butanoic acid]",IC50,[1],79.4 nM
same,PBMC TOX PXC50,[2],<5
"CNC(=O)c1nnc(Nc2cc([C@H](C)CC(=O)O)ccc2N(CC(C)C)C2CCOCC2)s1 [example 257, (3R)-3-(3-{[5-(methylcarbamoyl)-1,3,4-thiadiazol-2-yl]amino}-4-[(2-methylpropyl)(oxan-4-yl)amino]phenyl)butanoic acid]",IC50,[1],31.6 nM
same,PBMC TOX PXC50,[2],<5
"CC[C@H](CC(=O)O)c1ccc(N(CC(C)C)C2CCOCC2)c(Nc2n[nH]c(C3CC3)n2)c1 [Example 41, (R)-3-(3-((5-cyclopropyl-1H-1,2,4-triazol-3-yl)amino)-4-(isobutyl(tetrahydro-2H-pyran-4-yl)amino)phenyl)pentanoic Acid]",IC50,[1],7.94 nM
same,PBMC TOX PXC50,[2],<5
"CC(C)CN(CC(C)C)c1ccc([C@H](C)CC(=O)O)cc1Nc1ccc(=O)[nH]c1 [example 217, (3R)-3-{4-[bis(2-methylpropyl)amino]-3-[(6-oxo-1,6-dihydropyridin-3-yl)amino]phenyl}butanoic acid]",IC50,[1],3980 nM
same,PBMC TOX PXC50,[2],<5
"CC(C)CN(c1ccc([C@H](C)CC(=O)O)cc1Nc1nc(C#N)c[nH]1)C1CCOCC1 [example 228, (3R)-3-{3-[(4 cyano-1H-imidazol-2-yl)amino]-4-[(2-methylpropyl)(oxan-4-yl)amino]phenyl}butanoic acid]",IC50,[1],15.8 nM
same,PBMC TOX PXC50,[2],<5
"CO[C@H]1CC[C@@H](N(CC(C)C)c2ccc([C@H](C)CC(=O)O)cc2Nc2nc(Cl)ns2)CC1 [Example 48, (R)-3-(3-((3-chloro-1,2,4-thiadiazol-5-yl)amino)-4-(isobutyl((1s,4S)-4-methoxycyclohexyl)amino)phenyl)butanoic Acid]",IC50,[1],1 nM
same,PBMC TOX PXC50,[2],<5
"COC(=O)c1c[nH]c(Nc2cc([C@H](C)CC(=O)O)ccc2N(CC(C)C)C2CCCCC2)n1 [Example 77, (R)-3-(4-(cyclohexyl(isobutyl)amino)-3-((4-(methoxycarbonyl)-1H-imidazol-2-yl)amino)phenyl)butanoic Acid]",IC50,[1],1.58 nM
same,PBMC TOX PXC50,[2],<5
"CC(C)CN(CC(C)C)c1ccc(C(C)CC(=O)O)cc1Nc1nnnn1C (stereo not shown) [example 252, 3-{4-[bis(2-methylpropyl)amino]-3-[(1-methyl-1H-1,2,3,4-tetrazol-5-yl)amino]phenyl}butanoic acid]",IC50,[1],3980 nM
same,PBMC TOX PXC50,[2],<5
"CC(=O)N1CCC(N(CC(C)C)c2ccc([C@H](C)CC(=O)O)cc2Nc2nc(C(F)(F)F)ns2)CC1 [Example 70, (R)-3-(4-((1-acetylpiperidin-4-yl) (isobutyl)amino)-3-((3-(trifluoromethyl)-1,2,4-thiadiazol-5-yl)amino)phenyl)butanoic Acid]",IC50,[1],3.16 nM
same,PBMC TOX PXC50,[2],<5
"CC(C)CN(c1ccc([C@H](C)CC(=O)O)cc1Nc1n[nH]c(C(N)=O)n1)[C@H]1CC[C@H](O)CC1 (racemic) [example 225, (3RS)-3-{3-[(5-carbamoyl-1H-1,2,4-triazol-3-yl)amino]-4-[(2-methylpropyl)[(1rs&,4rs&)-4-hydroxycyclohexyl]amino]phenyl}butanoic acid]",IC50,[1],7940 nM
same,PBMC TOX PXC50,[2],<5
"CC(C)CN(c1ccc([C@H](C)CC(=O)O)cc1Nc1ccc(C(F)(F)F)cn1)C1CCOCC1 [Example 27, (R)-3-(4-(isobutyl(tetrahydro-2H-pyran-4-yl)amino)-3-((5-(trifluoromethyl)pyridin-2-yl)amino)phenyl)butanoic Acid]",IC50,[1],3.98 nM
same,PBMC TOX PXC50,[2],<5
"CO[C@H]1CC[C@H](N(CC(C)C)c2ccc([C@H](C)CC(=O)O)cc2Nc2n[nH]c(C#N)n2)CC1 (racemic) [example 222, (3RS)-3-{3-[(5-cyano-1H-1,2,4-triazol-3-yl)amino]-4-[(2-methylpropyl)[(1rs&,4rs&)-4-methoxycyclohexyl]ami-no]phenyl}butanoic acid]",IC50,[1],200 nM
same,PBMC TOX PXC50,[2],<5
"COCc1ccc(Nc2cc([C@H](C)CC(=O)O)ccc2N(CC(C)C)[C@H]2CC[C@H](OC)CC2)nc1 (racemic) [example 247, (3RS)-3-(3-{[5-(methoxymethyl)pyridin-2-yl]amino}-4-[(2-methylpropyl)[(1rs&,4rs&)-4-methoxycyclohexyl]ami-no]phenyl)butanoic acid]",IC50,[1],31.6 nM
same,PBMC TOX PXC50,[2],<5
